In patent US9108930B2, “N1- and N2-carbamoyl-1,2,3-triazole serine hydrolase inhibitors and methods” (The Scripps Research Institute, priority 2011, dated 2015):
Entries after “also recorded” stand apart in the source; their conditions may differ.

Legend:
DAGLA = molecular target: T1, DAGLA (Mus musculus, UniProt Q6WQJ1); test: Activity against recombinant DAGLA; assay type: biochemical
T1 construct: Full-length cDNAs encoding serine hydrolases were purchased from Open Biosystems; V5; host or cells: HEK293T

[1] = system: serine hydrolases in mouse brain proteome; test: Selectivity profile by competitive ABPP (mouse brain proteome), DAGL series; assay type: biochemical
endogenous DAGLB = molecular target: T2, endogenous DAGLB (Mus musculus, UniProt Q91WC9); test: HT01 labeling of endogenous DAGLB in mouse brain and peritoneal macrophage proteomes; assay type: biochemical; conditions: 2 μM pretreatment
T2 construct: from tissue; host or cells: mouse brain and peritoneal macrophages

peritoneal macrophages = test: Metabolomics of thioglycolate-elicited peritoneal macrophages from treated mice; assay type: in vivo, mouse; conditions: 5 mg/kg, 4 hours, i.p.
Experimental: Mice were treated with KT109, KT172 or KT195 (5 mg/kg, 4 hours, i.p.) to evaluate whether blockade of DAGLB in peritoneal macrophages would result in metabolic effects similar to those observed in Neuro2A cells. Thioglycolate-elicited peritoneal macrophages were harvested, and the cells were subjected to metabolomics studies. […] All the metabolic effects observed in pharmacological studies were recapitulated using Daglb^−/− mice, providing genetic evidence that the changes were indeed DAGLB-mediated.
Metabolites were quantified by either selected reaction monitoring (SRM) of each metabolite using an Agilent G6410B Triple-Quad instrument or untargeted metabolomic analysis (substrate assays) using an Agilent 1100 series LC-MSD SL instrument. […] For analysis of diacylglycerols (DAGs) a Luna C5 column (50 mm×4.60 mm with 5 μm diameter particles) from Phenomenex was used. Mobile phase A was made of 95:5 v/v H2O:MeOH, and mobile phase B was composed of 60:35:5 v/v/v i-PrOH:MeOH:H2O. Ammonium hydroxide (0.1%) and formic acid (0.1%) was included to assist in ion formation in negative and positive ionization modes, respectively. For analysis of DAGs, 5 mM ammonium formate was also used in addition to 0.1% formic acid to assist in positive ionization and NH4+ adduct formation. For metabolite measurements, cells were resuspended in 1 mL of a 1% NaCl solution and added to 3 mL of a 2:1 v/v CHCl3:MeOH doped with 1 nmol of the following internal standards: d5-2-arachidonoylglycerol (2-AG), d8-arachidonic acid (AA), and d8-1-stearoyl-2-arachidonoylglycerol (SAG). The mixture was vortexed and then centrifuged (1,400×g, 3 min). The organic layer was removed, CHCl3 was added until the final volume was again 4 ml, and the extraction was repeated. The combined organic extracts were dried under a stream of N2 and resolubilized in 2:1 v/v CHCl3:MeOH (120 μl). 30 μL of resolubilized lipids were injected for positive mode (MAGs and DAGs) and negative mode (free fatty acids and eicosanoids) measurements.
The following parameters (MS) were used to measure the indicated metabolites by SRM (precursor ion, product ion, collision energy in V, polarity): C20:4 MAG or 2-AG (379, 287, 8, positive), d5-2-AG (384, 287, 5, positive), C18:0/C20:4 DAG or SAG (662, 341, 15, positive), d8-SAG (671, 671, 0, positive), C18:1/C20:4 DAG (660, 341, 15, positive), C16:0/C20:4 DAG (634, 341, 15, positive), C14:0/C20:4 DAG (606, 341, 15, positive), arachidonic acid or AA (303, 303, 0, negative), d8-AA (311, 267, 5, negative), PGE2 (351, 271, 10, negative), and PGD2 (351, 271, 10, negative). MS analysis was performed with an electrospray ionization source with the following parameters: drying gas temperature=350° C., drying gas flow rate=11 L/min, and the nebulizer pressure=35 psi. Prostaglandin SRM parameters were based on previously reported methods and transitions. Metabolites targeted by SRM were quantified by measuring the area under the peak in comparison with the internal standards. For metabolites where isotopic internal standards were not used, external standard curves with the internal standard versus metabolite standard were generated. In DAGL substrate assays, formation of the hydrolysis product, 2-AG was followed by measuring the area under the peak for 2-AG in comparison to the 1-monopentadecanoin standard ion.

DAGLB [2] = molecular target: T3, DAGLB (Mus musculus, UniProt Q91WC9); test: ABPP-SILAC in Neuro2A cells; conditions: about 4 hours; 25 nM KT172, 50 nM KT109
T3 sequence (Q91WC9 1-669): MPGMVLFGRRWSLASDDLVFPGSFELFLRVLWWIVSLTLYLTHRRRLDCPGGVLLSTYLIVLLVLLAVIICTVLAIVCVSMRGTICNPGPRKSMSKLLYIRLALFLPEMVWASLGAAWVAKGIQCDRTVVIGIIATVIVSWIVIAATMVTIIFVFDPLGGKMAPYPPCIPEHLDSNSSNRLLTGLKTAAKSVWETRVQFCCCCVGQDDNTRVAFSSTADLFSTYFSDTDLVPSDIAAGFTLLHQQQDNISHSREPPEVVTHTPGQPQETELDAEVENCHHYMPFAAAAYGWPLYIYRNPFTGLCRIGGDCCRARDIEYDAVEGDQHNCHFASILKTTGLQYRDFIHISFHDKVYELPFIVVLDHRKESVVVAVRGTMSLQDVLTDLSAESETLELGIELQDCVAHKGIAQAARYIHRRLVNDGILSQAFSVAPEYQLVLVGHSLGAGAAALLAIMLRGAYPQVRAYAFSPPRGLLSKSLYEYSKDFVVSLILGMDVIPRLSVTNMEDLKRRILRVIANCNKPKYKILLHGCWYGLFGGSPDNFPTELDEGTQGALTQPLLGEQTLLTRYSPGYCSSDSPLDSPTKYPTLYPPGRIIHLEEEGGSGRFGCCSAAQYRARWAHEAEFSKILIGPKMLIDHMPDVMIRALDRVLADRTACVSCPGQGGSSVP

DAGLB [3] = molecular target: T3, DAGLB; test: ABPP-MudPIT of peritoneal macrophages from treated mice; conditions: in vivo
[4] = system: serine hydrolases in the peritoneal macrophage proteome; test: ABPP-MudPIT of peritoneal macrophages from treated mice, off-targets; conditions: mouse, in vivo
DAGLB [5] = molecular target: T3, DAGLB; test: In situ inhibition in Neuro2A cells, competitive ABPP with HT-01; assay type: cell-based; design: from tissue; host or cells: thioglycolate-elicited peritoneal macrophages of treated mice; conditions: 4 hours
Experimental: For gel-based competitive ABPP studies, proteomes from cells treated in situ with inhibitor for 4 h at 37° C. at the indicated concentrations (n=3) were labeled with HT-01 (1 μM) for 30 min at 37° C. After quenching, SDS-PAGE, and in-gel visualization, the percentage of enzyme activity remaining was determined by measuring the integrated optical intensity of the bands using IMAGER® software. For LC-MS substrate assays, the percentage of enzyme activity remaining was determined by comparing the specific activity (amount of 2-AG formed per min per mg of proteome) of inhibitor with DMSO-treated samples. The IC50 values were determined from a dose-response curve generated using GraphPad PRISM® software.

DAGLB [6] = molecular target: T3, DAGLB; test: In vivo DAGLB inactivation in peritoneal macrophages, gel-based competitive ABPP using HT01; design: from tissue; host or cells: thioglycolate-elicited peritoneal macrophages of treated mice; conditions: i.p.
DAGLB [7] = molecular target: T3, DAGLB; test: Gel-based ABPP assay against recombinant DAGLB (HEK293T-DAGLB lysates); assay type: biochemical; design: Full-length cDNAs encoding serine hydrolases were purchased from Open Biosystems; V5; host or cells: HEK293T; conditions: recombinant

T1 sequence (Q6WQJ1 whole entry): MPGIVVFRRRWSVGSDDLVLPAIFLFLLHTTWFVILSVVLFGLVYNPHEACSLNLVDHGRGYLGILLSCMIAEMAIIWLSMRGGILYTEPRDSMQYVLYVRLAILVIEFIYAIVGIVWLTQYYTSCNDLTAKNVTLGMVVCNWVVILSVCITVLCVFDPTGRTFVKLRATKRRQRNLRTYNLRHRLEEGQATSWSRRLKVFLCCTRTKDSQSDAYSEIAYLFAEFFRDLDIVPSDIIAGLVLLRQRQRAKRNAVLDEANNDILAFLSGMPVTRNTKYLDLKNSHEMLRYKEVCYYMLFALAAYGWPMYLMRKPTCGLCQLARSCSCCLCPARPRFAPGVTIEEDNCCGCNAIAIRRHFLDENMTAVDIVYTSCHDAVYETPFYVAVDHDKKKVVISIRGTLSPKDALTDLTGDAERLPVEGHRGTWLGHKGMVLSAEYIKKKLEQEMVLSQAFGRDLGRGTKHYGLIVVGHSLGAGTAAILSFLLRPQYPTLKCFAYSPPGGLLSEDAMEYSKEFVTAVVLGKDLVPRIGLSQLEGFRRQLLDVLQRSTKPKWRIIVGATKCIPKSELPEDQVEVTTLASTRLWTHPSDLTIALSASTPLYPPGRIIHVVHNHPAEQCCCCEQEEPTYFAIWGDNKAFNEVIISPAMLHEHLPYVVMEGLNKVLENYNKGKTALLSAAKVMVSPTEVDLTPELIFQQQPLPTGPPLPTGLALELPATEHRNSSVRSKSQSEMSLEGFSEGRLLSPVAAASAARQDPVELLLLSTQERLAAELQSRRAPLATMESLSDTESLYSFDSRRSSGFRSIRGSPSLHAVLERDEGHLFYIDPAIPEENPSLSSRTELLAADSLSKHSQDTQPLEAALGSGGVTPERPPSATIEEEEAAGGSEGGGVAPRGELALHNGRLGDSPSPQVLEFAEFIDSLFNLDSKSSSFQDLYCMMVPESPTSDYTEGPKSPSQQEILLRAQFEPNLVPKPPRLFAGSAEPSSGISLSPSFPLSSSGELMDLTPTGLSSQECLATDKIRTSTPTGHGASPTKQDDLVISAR

reduction of HT01 probe labeling of the DAGLB band (endogenous DAGLB): > 80%
DAGLB activity blocked (DAGLB [2]): approximately 90%
DAGLB inhibition by spectral counting (DAGLB [3]): confirmed inhibition of DAGLB
IC50 (DAGLB [5]): 11 nM
time to complete inhibition of DAGLB (DAGLB [6]; 5 mg/kg): within the first hour
duration / time-course of DAGLB inhibition (DAGLB [6]; 5 mg/kg, about 1 to 16 hours): shorter compared with KT109
dose (as low as) giving complete inactivation of DAGLB in peritoneal macrophages (DAGLB [6]; about 4 hours, doses about 10 to about 0.1 mg/kg): 0.5 mg/kg
activity against DAGLB (DAGLB [7]): maintaining potency against DAGLB
SMILES: COc1ccccc1-c1ccc(-c2cn(C(=O)N3CCCCC3Cc3ccccc3)nn2)cc1 (centres unmarked) [KT172]
activity against DAGLA (DAGLA): more potent against the alpha isoform in comparison with KT109
off-target activity / selectivity against other serine hydrolases [1]: mild activity against this off-target enzyme at higher concentrations; also recorded: slightly increased activity against MGLL
change in 2-AG (peritoneal macrophages): Dramatic decreases in 2-AG
change in SAG (peritoneal macrophages): significant increases in SAG
change in cellular AA, PGE2 and PGD2 (peritoneal macrophages): significant decreases in cellular AA levels and a corresponding reduction in PGE2 and PGD2
off-target activities [4]: carboxylesterases (Ces3 and Ces2g)
